What all share (type): in vivo
One series deals with aged dogs. Put plainly: CP-118,954 study of DNMP performance, counter-balanced within-subject design.
Series [1] concerns senior beagle dogs. Put plainly: relearning of the delayed-non-matching-to-position task (DNMP). The settings on record: N=4. As to the method:
Five male and two female senior beagle dogs (M+S.D.=14.60+1.46 years) served as subjects (Table 1). Dogs were divided into two groups matched on their most recent DNMP performance; the first group (N=4) was administered phenserine (0.5 mg/kg) via capsule in a meatball and the second group (N=3) was administered a placebo meatball. Dogs received a five-day wash-in period prior to study initiation and were administered their respective treatments 1-hour prior to DNMP testing. Dogs were trained initially on the DNMP using a 5-s delay until a 2-stage criterion was passed. The first stage required animals to achieve a score of 11/12 on one day, a score of 10/12 over two consecutive days, or a score of 29/36 over three consecutive days. Subsequently, the dogs were required to achieve a score of 26/36 over the following three days to pass the second stage.

A further series deals with middle-aged beagle dogs. Put plainly: delayed-non-matching-to-sample task (DNMS), recognition memory. The settings on record: 0.5 mg/kg dose. Here is the method: The present study assessed the effects of a 0.5 mg/kg dose of phenserine in middle-aged dogs tested on a recognition memory task.
Six middle-aged beagle dogs (4 female and 2 male) served as subjects. Dogs were divided equally into 2 groups matched for performance on their most recent 10 sessions on the delayed-non-matching-to-sample task (DNMS; (Callahan et al., 2000). One group was administered phenserine (0.5 mg/kg) via capsule in a meatball and the second group served as control. Animals were tested one-hour after drug administration and were tested on a total of 20 test sessions.
To examine the effects of phenserine on DNMS performance, mean performance over groups of five test sessions was analyzed (see e.g., FIG. 1).

The test system of series [2] is senior beagle dogs. As to the kind of experiment: variable-delay DNMP under scopolamine / saline challenge. The note with it: scopolamine 15 μg/kg SC, 20-s (p=0.038) and 80-s (p=0.082) delays. Here is the method:
Following relearning of the DNMP, dogs were tested on a variable-delay paradigm in which delays of 20 and 80 s were used. The delays occurred equally among the trials in a daily test session. We have previously shown that the 15-μg/kg dose selectively impairs DNMP performance (Araujo et al., 2004a). The dogs were first divided into two groups, one that was administered phenserine and the other received a placebo control. All subjects were given a 5-day stabilization period and then tested under scopolamine (15 μg/kg, SC) and saline (SC), administered 45 min prior to testing, over two test days separated by a treatment washout day. One day following the second treatment day, animals were removed from phenserine or placebo treatments and re-tested on the stabilization days and under scopolamine and saline treatment as indicated above.

The structures appear in SMILES notation.

For `O=C1Cc2cc3c(CCC4CCN(Cc5ccccc5)CC4)noc3cc2N1` [CP-118,954], in the series with aged dogs, the DNMP performance entry is reported as “no significant improvement”. For `CN1CC[C@@]2(C)c3cc(OC(=O)Nc4ccccc4)ccc3N(C)[C@@H]12` [phenserine, (−)-phenylcarbamoyleseroline], the “mean errors to relearn the DNMP (M+SEM)” value with senior beagle dogs [1] (0.5 mg/kg via capsule 1 hour prior to testing, 5-s delay, placebo 14.33+6.98) is 5.25+0.85 errors. In addition, the “fewer errors compared to the most previous relearning rates (M+SEM)” value in the series on senior beagle dogs [1] (0.5 mg/kg, placebo group showed more errors (6.33+9.53)) is reported as 5.00+4.51 errors. Moreover, the adverse effects entry with middle-aged beagle dogs is on record as “No obvious adverse effects”.

With `CN1[C@@H]2C[C@@H](OC(=O)[C@H](CO)c3ccccc3)C[C@H]1[C@@H]1O[C@@H]12` [scopolamine], the “DNMP performance of the placebo group after treatment with scopolamine” value in the series with senior beagle dogs [2] is “performance deficits”.

The values are drawn from patent US20070167509A1, “Use of phenserine and analogs to treat behavioral problems and improve trainability” (priority 2005, published 2007).
